Results: publication PMC10661096, “Cryopreservation of assay-ready hepatocyte monolayers by chemically-induced ice nucleation: preservation of hepatic function and hepatotoxicity screening capabilities” (Biomaterials Science, 2023)
pEC50: −log10 of the molar value. “And” between values parts separate entries of the source, which are not always exact repeats. Identical values can stand only once.

Legend:
HepG2 cells [1] = assay: Post-thaw percentage cell recovery of monolayers in 96 well plates (Trypan Blue counts); format: cell-based, Human; conditions: −80 °C, 24 h post-thaw, additives supplemented with 10% DMSO
Procedure: (§1) HepG2 cells (density dependent on assay) and mouse hepatocytes (30k cell per well) were plated on rat tail type I collagen (100 μg mL^−1) coated 96 well plates and incubated for 24 hours. The cryoprotectant solution was prepared in advance. Hornbeam pollen (0.8 g) was suspended in sterile water (10 mL) for 24 h at 4 °C. The solution was sterile filtered and mixed 1 : 1 with either Eagle's minimum essential base medium (HepG2) or Williams E base medium (Mouse hepatocytes) supplemented with 20% FBS and 20% DMSO (final concentration 10%) to produce the cryopreservation formulation. The cell culture medium of the cells was replaced with 100 μL of the prechilled cryopreservation formulation (4 °C) and the plates were placed on a Corning XT CoolSink 96F and in a −80 °C freezer overnight. HepG2 cells and hepatocytes were also cryopreserved with 10% DMSO alone in cell culture medium for comparison. To thaw the cells, 150 μL of warm complete/thawing cell culture medium (37 °C) was added and the plates were placed in the incubator for 12 min. […]
(§2) HepG2 cells were cryopreserved between 1.6–30k cell per well and hepatocytes at a density of 30k cell per well. […] Freeze/Thaw and non-frozen HepG2 cells were counted daily until 80–90% confluency was reached to determine proliferation rates. […]

HepG2 cells [2] = conditions: cited from earlier work; for Post-thaw cell recovery after preconditioning: HepG2 cells and other cell lines, increased from approximately 10–20% ref 22,23
[3] = tested on: primary mouse hepatocytes; assay: Drug dose–response, resazurin reduction cell viability; format: cell-based; conditions: Hepatocyte, 24 h, 24 h treatment
HepG2 cells [4] = assay: as above; format: cell-based; conditions: Homo sapiens, HepG2, 24 h, 24 h treatment
Procedure: Statistical analysis and data visualization were performed using GraphPad Prism 8 (La Jolla, California, USA). The Shapiro-Wilk test and Levene test were utilized to assess the normality of the data and equality of variances between groups. If the data met the assumptions of normality and equal variance, it was reported as mean ± SEM. Statistical significance between the means of 2 groups were assessed using an unpaired (independent) T-test and for 2+ groups a one-way analysis of variance (ANOVA), followed by Tukey's post hoc analysis, was used. […] Statistical significance between means was determined using Welch's t-test. The significance levels were represented as follows: not significant (ns) for p ≥ 0.05, * for p ≤ 0.05, ** for p ≤ 0.01, and **** for p ≤ 0.0001. Dose–response curves were generated using nonlinear regression with a variable slope (four parameters) fitted by the least squares regression method, without any weighting. GraphPad determined the EC50 values based on the fitting process. […] Fluorescence measurements were recorded with excitation and emission at 530/25 nm and 590/30 using a BioTek Synergy HT microplate reader. Wells with resazurin solution alone were also measured for background subtraction and cells untreated with pharmaceutically active compounds were measured as a maximum resazurin reduction value. […] Cell culture medium was replaced by cell culture media supplemented with acetaminophen (0–92.6 mM), diclofenac (0–3.4 mM), doxorubicin (0–9.2 mM), metformin (0–310 µM), phenformin (0–97.4 µM) and valproic acid (0–50 mM) and […] The cell culture medium was replaced with 100 µL of resazurin solution, prepared by dissolving 1 resazurin tablet (Scientific Laboratory Supplies, Nottingham, UK) in 50 mL of phenol-free DMEM/F-12 medium supplemented with 10% FBS and sterile filtered. The cells were incubated for 2 h in […] Fluorescence measurements were recorded with excitation and emission at 530/25 nm and 590/30 using a BioTek Synergy HT microplate reader. Wells with resazurin solution alone were also measured for background subtraction and cells untreated with pharmaceutically active compounds were measured as a maximum resazurin reduction value. Percentage cell viability was reported using the fluorescence readings using the following equation: Sample Fluorescence − Background Fluorescence x 100 Maximum (Untreated) Fluorescence − Background Fluorescence 1.7 Primary Hepatocyte Cryopreservation Mice were bred at the University of Warwick after local AWERB and Home Office approvals (PP3644080). Hepatocytes were isolated from adult (8- to 12-weeks old) male and female C57BL/6NCrl mice livers, via a two-step perfusion process. After cervical dislocation, the peritoneal cavity was open and a 27G needle was inserted into the vena cava. Perfusion was carried out through the vena cava at a flow rate of 6 mL.min-1 for 10 mins with buffers warmed S11

[5] = tested on: primary mouse hepatocytes; assay: Post-thaw percentage cell recovery of monolayers in 96 well plates (Trypan Blue counts); format: cell-based; conditions: primary mouse hepatocyte monolayers, 24 h post-thaw
Procedure: as §1, §2

A549 cells = assay: Post-thaw percentage cell recovery of monolayers in 96 well plates; format: cell-based, Human; conditions: 24 h post-thaw
Procedure: °C and 150 µL of warm complete cell medium (37 °C) was added. The cells were placed in the incubator for 12 mins, to allow thawing, and the solutions were replaced with 200 µL of warm complete cell medium (37 °C). The cells were placed in the incubator for a further 24 h.
Percentage cell recovery was determined by dissociating cells with trypsin (0.25%) and EDTA (1 mM), staining the cells with trypan blue (to count membrane intact cells) and comparing cell counts immediately before and 24 h after freeze/thaw. A549 cells were cryopreserved using the same approach as confluent monolayers (20k cells/well) and varying cell densities (outlined throughout) as another comparative cell line, using Ham's F-12K (Kaighn's) Medium supplemented with 10% FBS and 1% PSA as the complete growth medium and Ham's F-12K (Kaighn's) Medium alone as the base medium. Cell recovery values were also obtained for plates containing A549 and HepG2 cells stored for over 1 month in a -80 °C freezer.
1.5 Assessing Cellular Health
HepG2 cells (7.5k cell/well) were seeded in collagen (12.7 µg/cm2) coated 96 well plates and A549 cells (7.5k cell/well) were seeded in collagen uncoated 96 well plates. The plates were freeze/thawed as described in section 1.4. […]

[6] = Freeze/Thaw adherent primary mouse hepatocytes
[7] = Non-frozen primary mouse hepatocytes
[8] = Freeze/Thaw HepG2 cells (24 h post-thaw)

## CC(C)CCC[C@@H](C)[C@H]1CC[C@H]2[C@@H]3CC=C4C[C@@H](O)CC[C@]4(C)[C@H]3CC[C@]12C.O [cholesterol monohydrate]
HepG2 cells [1]
  Post-thaw percentage cell recovery: ~60%

## OC[C@H]1O[C@H](O[C@H]2O[C@H](CO)[C@@H](O)[C@H](O)[C@H]2O)[C@H](O)[C@@H](O)[C@@H]1O [trehalose]
HepG2 cells [2]
  Post-thaw cell recovery after preconditioning: 50%
HepG2 cells [2]; HepG2 monolayers ref 23
  Cell recovery after preconditioning with trehalose: 42%

## O=C(O)[C@@H]1CCCN1 [proline]
HepG2 cells [2]
  Post-thaw cell recovery after preconditioning: 50%

## O=C(O)Cc1ccccc1Nc1c(Cl)cccc1Cl [Diclofenac, diclofenac]
[3]; [6]
  pEC50: 3.06
[3]; [7]
  pEC50: 3.11

## CCCC(CCC)C(=O)O [VPA, valproic acid]
HepG2 cells [4]; [8]
  pEC50: 2.75
HepG2 cells [4]; Non-frozen HepG2 cells
  pEC50: 2.54

## [H]/N=C(/N)N/C(=N/[H])NCCc1ccccc1 [Phenformin, phenformin]
HepG2 cells [4]; [8]
  pEC50: 3.54
HepG2 cells [4]; Non-frozen HepG2 cells
  pEC50: 3.48

## CC(=O)Nc1ccc(O)cc1 [Acetaminophen, acetaminophen]
HepG2 cells [4]; [8]
  pEC50: 1.93
HepG2 cells [4]; Non-frozen HepG2 cells
  pEC50: 1.85

## COc1cccc2c1C(=O)c1c(O)c3c(c(O)c1C2=O)C[C@@](O)(C(=O)CO)C[C@@H]3O[C@H]1C[C@H](N)[C@H](O)[C@H](C)O1 [Doxorubicin, doxorubicin]
HepG2 cells [4]; [8]
  pEC50: 4.79
HepG2 cells [4]; Non-frozen HepG2 cells
  pEC50: 5.70

## CN(C)C(=N)N=C(N)N [Metformin, metformin]
HepG2 cells [4]; [8]
  pEC50: 2.37
HepG2 cells [4]; Non-frozen HepG2 cells
  pEC50: 2.42
[3]; [6]
  pEC50: 3.22
[3]; [7]
  pEC50: 3.11

## C[S+](C)[O-] [10% DMSO, dimethyl sulfoxide]
HepG2 cells [1]
  Post-thaw percentage cell recovery: 10% and 12.6%
[5]
  Post-thaw percentage cell recovery: 50%
A549 cells
  Post-thaw percentage cell recovery: 29%
